{"source": "paper PMC7606817", "about": "(Journal of controlled release : official journal of the …, 2020)", "origin": "cited, not measured here", "settings": "mice", "data": [{"smiles": "[C-]#[O+]", "note": "[CO, Carbon monoxide]", "values": [{"measurement": "CO elimination half-life", "result": 20, "unit": "min"}]}]}
